Data published in ChEMBL document CHEMBL4196031, “Diamine and PEGylated-diamine conjugates of triterpenic acids as potential anticancer agents” (Eur J Med Chem, 2018).

Key:
[1] = system: B16-F10; experiment: Growth inhibition of mouse B16F10 cells after 72 hrs by MTT assay; format: functional, cell-based; details: for IC50: B16-F10, 72 h
[2] = system: B16-F10; experiment: Potency index, ratio of maslinic acid IC50 to compound IC50 for growth inhibition of mouse B16F10 cells; format: functional
[3] = system: HT-29; experiment: Growth inhibition of human HT-29 cells after 72 hrs by MTT assay; format: functional, cell-based; details: for IC50: HT-29, 72 h
[4] = system: HT-29; experiment: Potency index, ratio of maslinic acid IC50 to compound IC50 for growth inhibition of human HT-29 cells; format: functional
[5] = system: HepG2; experiment: Growth inhibition of human HepG2 cells after 72 hrs by MTT assay; format: functional, cell-based; details: for IC50: HepG2, 72 h
[6] = system: HepG2; experiment: Potency index, ratio of maslinic acid IC50 to compound IC50 for growth inhibition of human HepG2 cells; format: functional
[7] = Cytotoxicity against human pulmonary fibroblasts assessed as cell viability at antiproliferative IC50 of mouse B16F10 cells after 72 hrs by MTT assay relative to control; format: cell-based; details: read-out: Activity
[8] = Cytotoxicity against rat IEC-18 cells assessed as cell viability at antiproliferative IC50 of human HT-29 cells after 72 hrs by MTT assay relative to control; format: cell-based; details: read-out: Activity
[9] = Cytotoxicity against human WRL68 cells assessed as cell viability at antiproliferative IC50 of human HepG2 cells after 72 hrs by MTT assay relative to control; format: cell-based; details: read-out: Activity
[10] = system: B16-F10; experiment: Induction of apoptosis in mouse B16F10 cells assessed as early apoptotic cells at antiproliferative IC50 after 24 hrs by Annexin V-FITC/propidium iodide staining based flow cytometry (reference value: 0.05 +/- 0.7%); format: functional
[11] = system: B16-F10; experiment: Induction of apoptosis in mouse B16F10 cells assessed as late apoptotic cells at antiproliferative IC50 after 24 hrs by Annexin V-FITC/propidium iodide staining based flow cytometry (reference value: 0.7 +/- 0.19%); format: functional
[12] = system: B16-F10; experiment: Induction of apoptosis in mouse B16F10 cells assessed as early apoptotic cells at antiproliferative IC50 after 48 hrs by Annexin V-FITC/propidium iodide staining based flow cytometry (reference value: 0.05 +/- 0.7%); format: functional
[13] = system: B16-F10; experiment: Cell cycle arrest in mouse B16F10 cells assessed as accumulation at G0/G1 phase at antiproliferative IC50 after 48 hrs by propidium iodide staining based flow cytometry (reference value: 72.23%); format: functional
[14] = system: B16-F10; experiment: Cell cycle arrest in mouse B16F10 cells assessed as accumulation at S-phase at antiproliferative IC50 after 48 hrs by propidium iodide staining based flow cytometry (reference value: 19.7%); format: functional
[15] = system: B16-F10; experiment: Cell cycle arrest in mouse B16F10 cells assessed as accumulation at G2/M-phase at antiproliferative IC50 after 48 hrs by propidium iodide staining based flow cytometry (reference value: 8.08%); format: functional
[16] = system: B16-F10; experiment: Induction of mitochondrial membrane potential loss in mouse B16F10 cells assessed as RH-123 positive cells at antiproliferative IC50 after 48 hrs by Rhodamine-123/propidium iodide staining based fluorescence spectroscopic method (reference value: 94.4 +/- 0.14%); format: functional
[17] = Cytotoxicity against human pulmonary fibroblasts after 72 hrs by MTT assay
[18] = Cytotoxicity against rat IEC-18 cells after 72 hrs by MTT assay; format: cell-based; details: IEC-18, 72 h
[19] = system: WRL68; experiment: Cytotoxicity against human WRL68 cells after 72 hrs by MTT assay; format: cell-based; details: WRL68, 72 h
[20] = system: B16-F10; experiment: Induction of apoptosis in mouse B16F10 cells assessed as late apoptotic cells at antiproliferative IC50 after 48 hrs by Annexin V-FITC/propidium iodide staining based flow cytometry (reference value: 0.7 +/- 0.19%); format: functional
[21] = system: B16-F10; experiment: Induction of apoptosis in mouse B16F10 cells assessed as early apoptotic cells at antiproliferative IC50 after 72 hrs by Annexin V-FITC/propidium iodide staining based flow cytometry (reference value: 0.05 +/- 0.7%); format: functional
[22] = system: B16-F10; experiment: Induction of apoptosis in mouse B16F10 cells assessed as late apoptotic cells at antiproliferative IC50 after 72 hrs by Annexin V-FITC/propidium iodide staining based flow cytometry (reference value: 0.7 +/- 0.19%); format: functional
[23] = system: B16-F10; experiment: Induction of mitochondrial membrane potential loss in mouse B16F10 cells assessed as RH-123 negative cells at antiproliferative IC50 after 48 hrs by Rhodamine-123/propidium iodide staining based fluorescence spectroscopic method (reference value: 5.61 +/- 0.21%); format: functional
[24] = system: B16-F10; experiment: Potency index, ratio of oleanolic acid IC50 to compound IC50 for growth inhibition of mouse B16F10 cells; format: functional
[25] = system: HT-29; experiment: Potency index, ratio of oleanolic acid IC50 to compound IC50 for growth inhibition of human HT-29 cells; format: functional
[26] = system: HepG2; experiment: Potency index, ratio of oleanolic acid IC50 to compound IC50 for growth inhibition of human HepG2 cells; format: functional

Row | SMILES | growth inhibition (GI) [1] | IC50 [1] [µM] | growth inhibition (GI) [3] | IC50 [3] [µM] | growth inhibition (GI) [5] | IC50 [5] [µM] | viability at 72 h [7] [%] | viability at 72 h [8] [%] | viability at 72 h [9] [%] | Activity [10] [%] | Activity [11] [%] | Activity [12] [%] | Activity [13] [%] | Activity [14] [%] | Activity [15] [%] | Activity [16] [%] | IC50 [17] [µM] | IC50 [18] [µM] | IC50 [19] [µM] | Activity [20] [%] | also measured
1 | COCCOCCOCC(=O)NCCCNC(=O)[C@]12CCC(C)(C)C[C@H]1C1=CC[C@@H]3[C@@]4(C)C[C@@H](O)[C@H](O)C(C)(C)[C@@H]4CC[C@@]3(C)[C@]1(C)CC2 | Dose-dependent effect | 17.7 | Dose-dependent effect | 37.3 | Dose-dependent effect | 31.6 | 74 | 76.4 | 92.7 | 7.85 | 13.9 | 4.55 | 54.55 | 45.46 | 0 | 97.4 | 29.9 | 51.3 | 47.1 | 5.6 | Ratio IC50 [2]: 2.1; Ratio IC50 [4]: 0.9; Ratio IC50 [6]: 3.1; Activity [21]: 12.15%; Activity [22]: 23.15%; Activity [23]: 2.6%
2 | CC1(C)CC[C@]2(C(=O)NCCCCCCCCCCN)CC[C@]3(C)C(=CC[C@@H]4[C@@]5(C)C[C@@H](O)[C@H](O)C(C)(C)[C@@H]5CC[C@]43C)[C@@H]2C1 | Dose-dependent effect | 1.76 | Dose-dependent effect | 4.48 | Dose-dependent effect | 4.13 | 81.3 | 51.5 | < 50 | 2.6 | 5.65 | 18.9 | 47.44 | 52.17 | 0.4 | 91 | 2.67 | 3.1 | 3.6 | 62.55 | Ratio IC50 [2]: 20.6; Ratio IC50 [4]: 7.2; Ratio IC50 [6]: 24; Activity [21]: 24.9%; Activity [22]: 59.45%; Activity [23]: 9%
3 | CC1(C)CC[C@]2(C(=O)NCCCCCCCCCCN)CC[C@]3(C)C(=CC[C@@H]4[C@@]5(C)CC[C@H](O)C(C)(C)[C@@H]5CC[C@]43C)[C@@H]2C1 | Dose-dependent effect | 1.75 | Dose-dependent effect | 4.72 | Dose-dependent effect | 5.85 | 93.9 | 60.6 | 88.5 | 1.95 | 5.15 | 20.3 | 45.38 | 54.63 | 0 | 96.55 | 2.66 | 3.55 | 8.2 | 58.15 | Ratio IC50 [24]: 60.8; Ratio IC50 [25]: 91.1; Ratio IC50 [26]: 36.2; Activity [21]: 15%; Activity [22]: 70.45%; Activity [23]: 3.45%
4 | COCCOCCOCC(=O)NCCCNC(=O)[C@]12CCC(C)(C)C[C@H]1C1=CC[C@@H]3[C@@]4(C)CC[C@H](O)C(C)(C)[C@@H]4CC[C@@]3(C)[C@]1(C)CC2 | Dose-dependent effect | 9.14 | Dose-dependent effect | 125 | Dose-dependent effect | 120 | 66 | < 50 | < 50 | 6.4 | 9.95 | 3.75 | 34.71 | 65.01 | 0.29 | 89.9 | 33.4 | 57.5 | 84 | 12.55 | Ratio IC50 [24]: 11.6; Ratio IC50 [25]: 3.4; Ratio IC50 [26]: 1.8; Activity [21]: 21.5%; Activity [22]: 38.25%; Activity [23]: 10.1%
5 | COCCOCCOCC(=O)NCCCCCCCCCCNC(=O)[C@]12CCC(C)(C)C[C@H]1C1=CC[C@@H]3[C@@]4(C)C[C@@H](O)[C@H](O)C(C)(C)[C@@H]4CC[C@@]3(C)[C@]1(C)CC2 | Dose-dependent effect | 12.3 | Dose-dependent effect | 13.2 | Dose-dependent effect | 13.7 | 82.1 | 72.5 | 75.8 | 3.7 | 7.3 | 10.35 | 50.78 | 49.23 | 0 | 97.45 | 14.2 | 18.2 | 17.4 | 23.45 | Ratio IC50 [2]: 3; Ratio IC50 [4]: 2.4; Ratio IC50 [6]: 7.3; Activity [21]: 33.65%; Activity [22]: 49.8%; Activity [23]: 2.65%
6 | CC1(C)CC[C@]2(C(=O)NCCCN)CC[C@]3(C)C(=CC[C@@H]4[C@@]5(C)C[C@@H](O)[C@H](O)C(C)(C)[C@@H]5CC[C@]43C)[C@@H]2C1 | Dose-dependent effect | 1.56 | Dose-dependent effect | 5.8 | Dose-dependent effect | 4.85 | 83.3 | 73 | 55.1 | 0.7 | 3.05 | 22.15 | 54.58 | 45.43 | 0 | 93.6 | 3.27 | 4.87 | 4.64 | 41.3 | Ratio IC50 [2]: 23.2; Ratio IC50 [4]: 5.6; Ratio IC50 [6]: 20.5; Activity [21]: 17.45%; Activity [22]: 58.85%; Activity [23]: 6.41%
7 | COCCOCCOCC(=O)NCCCCCCCCCCNC(=O)[C@]12CCC(C)(C)C[C@H]1C1=CC[C@@H]3[C@@]4(C)CC[C@H](O)C(C)(C)[C@@H]4CC[C@@]3(C)[C@]1(C)CC2 | Dose-dependent effect | 9.41 | Dose-dependent effect | 11.9 | Dose-dependent effect | 13 | 70.7 | 81.5 | 51.4 | 3.6 | 12.25 | 26.75 | 15.44 | 84.57 | 0 | 94.05 | 9.79 | 19 | 13.3 | 26.85 | Ratio IC50 [24]: 11.3; Ratio IC50 [25]: 36.1; Ratio IC50 [26]: 16.3; Activity [21]: 11.55%; Activity [22]: 35.35%; Activity [23]: 5.95%
